For 41 molecules, IC50 and half-life results are on record in ChEMBL document CHEMBL5365548, “Discovery of Pyrrolo[2,3-c]pyridines as Potent and Reversible LSD1 Inhibitors” (ACS Med Chem Lett, 2023).

Series [1] addresses Lysine-specific histone demethylase 1A (Homo sapiens, UniProt O60341). In words: Inhibition of human recombinant LSD1 expressed in Escherichia coli using H3K4me2 peptide as substrate incubated for 60 mins by AlphaLISA assay.
Series [2] relates to MOLM-13. In words: Antiproliferative activity against human MOLM-13 cells assessed as cell growth inhibition incubated for 7 days by WST-8 assay. Format: functional, cell-based. The note with it: MOLM-13, 168 h. On the technique in general: Formazan colour is commonly taken as a measure of viable cells.
The subject of series [3] is NCI-H1417. In words: Antiproliferative activity against human NCI-H1417 cells assessed as cell growth inhibition incubated for 10 days by WST-8 assay. The note with it: NCI-H1417, 240 h. Format: functional, cell-based.
In series [4] the test system is MV4-11. In words: Antiproliferative activity against human MV4-11 cells assessed as cell growth inhibition incubated for 10 days by WST-8 assay. The note with it: MV4-11, 240 h. Format: functional, cell-based.
Series [5] can be described thus: Microsomal stability in human liver microsome assessed as half life measured upto 60 mins by LC-MS/MS analysis. Format: ADME. The note with it: liver microsomes.
Series [6] can be described thus: Microsomal stability in rat liver microsome assessed as half life measured upto 60 mins by LC-MS/MS analysis. The note with it: liver microsomes. Format: ADME. Background: Liver microsomes are vesicles of endoplasmic reticulum, rich in cytochrome P450 enzymes.
A short description of series [7]: Microsomal stability in mouse liver microsome assessed as half life measured upto 60 mins by LC-MS/MS analysis. Format: ADME. The note with it: liver microsomes.
Series [8] can be described thus: Microsomal stability in dog liver microsome assessed as half life measured upto 60 mins by LC-MS/MS analysis. Format: ADME, Canis lupus familiaris. The note with it: liver microsomes.

Where only a bound is given, the exact number is not on record here.

Consider `Cc1ccc(-c2ncc(OC[C@@H]3CCNC3)cc2-c2ccc(C#N)cc2)cc1`, for which the IC50 in series [1] was determined as 130 nM; in series [2] it was 613 nM; in series [3], 213 nM; in series [4], 122 nM.

`CC(C)c1ccc(-c2ncc3c(ccn3CC3CCNCC3)c2-c2ccc(C#N)cc2)cc1`: in series [1], the IC50 was 46.1 nM.

Consider `Cn1ncc2cc(-c3ncc4c(ccn4CC4CCNCC4)c3-c3ccc(C(N)=O)cc3)ccc21`, for which the IC50 in series [1] came out at 6250 nM.

As to `COC(C)(C)c1ccc(-c2ncc3c(ccn3CC3CCNCC3)c2-c2ccc(C#N)cc2)cc1`, the IC50 in series [1] turned out to be 16.5 nM.

Consider `CN(C)c1ccc(-c2ncc3c(ccn3CC3CCNCC3)c2-c2ccc(C#N)cc2)cc1`, for which the IC50 in series [1] was determined as 9.4 nM.

`CCC1(Cn2ccc3c(-c4ccc(C#N)cc4)c(-c4ccc5c(cnn5C)c4)ncc32)CCNCC1`: the IC50 in series [1] came to 121 nM.

For the molecule `Cc1cc(-c2c(-c3ccc4c(cnn4C)c3)ncc3c2ccn3CC2CCNCC2)ccc1C#N`, the IC50 in series [1] turned out to be 156 nM.

`Cn1ncc2cc(-c3ncc4c(ccn4CC4CCNCC4)c3-c3ccc(C#N)cc3F)ccc21`: in series [1], the IC50 was 17.5 nM.

For `Cn1ccc2cc(-c3ncc4c(ccn4CC4CCNCC4)c3-c3ccc(C#N)cc3)cnc21`, the IC50 in series [1] was 5.1 nM.

On to `COC(=O)Nc1ccc(-c2ncc3c(ccn3CC3CCNCC3)c2-c2ccc(C#N)cc2)cc1`, for which the IC50 in series [1] was found to be 53.8 nM.

Take `CN1CCOc2cc(-c3ncc4c(ccn4CC4CCNCC4)c3-c3ccc(C#N)c(F)c3)ccc21`: the half-life in series [5] is less than 10 min; in series [6], 42 min; in series [7], less than 10 min; in series [8] it was 37 min. The IC50 stood at 4.3 nM in series [1], 58 nM in series [2], 2.7 nM in series [3] and 1.7 nM in series [4].

As for `CC(C)(O)c1ccc(-c2ncc3c(ccn3CC3CCNCC3)c2-c2ccc(C#N)cc2)cc1`, the IC50 in series [1] worked out at 21.1 nM.

`Cc1ccc(-c2ncc3c(ccn3CC3CCNCC3)c2-c2ccc(C#N)cc2)cc1`: the IC50 in series [1] was determined as 34.5 nM.

For `Cn1ccc2cc(-c3ncc4c(ccn4CC4CCNCC4)c3-c3ccc(C#N)cc3)ccc21`, the concentration for half-maximal inhibition (IC50) in series [1] is 6.5 nM.

Take `Cn1cnc2cc(-c3ncc4c(ccn4CC4CCNCC4)c3-c3ccc(C#N)cc3)ccc21`: the IC50 in series [1] came to 15.4 nM.

With `C=C(C)c1ccc(-c2ncc3c(ccn3CC3CCNCC3)c2-c2ccc(C#N)cc2)cc1`, the IC50 in series [1] was 58.5 nM.

In the case of `Cn1cc(-c2ncc3c(ccn3CC3CCNCC3)c2-c2ccc(C#N)cc2)cn1`, the IC50 in series [1] was greater than 1000 nM.

On to `CS(=O)(=O)c1ccc(-c2ncc3c(ccn3CC3CCNCC3)c2-c2ccc(C#N)cc2)cc1`, for which the IC50 in series [1] is 146 nM.

Consider `Cn1ncc2cc(-c3ncc4c(ccn4CC4CCNCC4)c3-c3ccc(C#N)cc3)ccc21`, for which the IC50 came out at 12.9 nM in series [1], 62 nM in series [2], 11 nM in series [3] and 4.1 nM in series [4].

As for `Cn1ncc2cc(-c3ncc4c(ccn4CC4(C)CCNCC4)c3-c3ccc(C#N)cc3)ccc21`, the IC50 in series [1] stood at 4.3 nM; in series [2], 126 nM; in series [3], 5.7 nM; in series [4], 3.2 nM.

For the molecule `CN1CCOc2cc(-c3ncc4c(ccn4CC4(C)CCNCC4)c3-c3ccc(C#N)c(F)c3)ccc21`, the half-life in series [5] was less than 10 min; in series [6], 36 min; in series [7], less than 10 min; in series [8], 35 min. The IC50 was 1.4 nM in series [1], 182 nM in series [2], 2.3 nM in series [3] and 0.7 nM in series [4].

In the case of `CN1CCOc2cc(-c3ncc4c(ccn4CC4(C)CCNCC4)c3-c3ccc(C#N)cc3)ccc21`, the IC50 in series [1] was 1.3 nM; in series [2], 130 nM; in series [3], 3.7 nM; in series [4], 1.5 nM.

As to `CNCCCn1ccc2c(-c3ccc(C#N)cc3)c(-c3ccc4c(cnn4C)c3)ncc21`, the IC50 in series [1] was 42.8 nM.

In the case of `N#Cc1ccc(-c2c(-c3ccc4[nH]ncc4c3)ncc3c2ccn3CC2CCNCC2)cc1`, the IC50 in series [1] was found to be 94.3 nM.

As for `N#Cc1ccc(-c2c(-c3ccc(N)cc3)ncc3c2ccn3CC2CCNCC2)cc1`, the IC50 in series [1] was 354 nM.

For `Cn1ncc2cc(-c3ncc4c(ccn4C[C@@H]4CCCNC4)c3-c3ccc(C#N)c(F)c3)ccc21`, in series [1], the IC50 is 3.5 nM.

Take `Cc1ccc(-c2ncc3c(ccn3CC3CCNCC3)c2-c2ccc(C#N)cc2)cc1C`: the IC50 in series [1] was determined as 24.3 nM.

As for `CNC1CCC(Cn2ccc3c(-c4ccc(C#N)c(F)c4)c(-c4ccc5c(cnn5C)c4)ncc32)CC1` (stereo not drawn), the IC50 in series [1] was 229 nM.

On to `Cn1ncc2cc(-c3ncc4c(ccn4Cc4cccnc4)c3-c3ccc(C#N)c(F)c3)ccc21`, for which, in series [1], the IC50 was greater than 10000 nM.

In the case of `CN1CCOc2cc(-c3ncc4c(ccn4CC4CCNCC4)c3-c3ccc(C#N)cc3)ccc21`, the IC50 in series [1] was 4.6 nM; in series [2] it was 170 nM; in series [3] it was 9.3 nM; in series [4] it was 2.9 nM.

Take `Cn1ncc2cc(-c3ncc4c(ccn4CCCCN)c3-c3ccc(C#N)cc3)ccc21`: the IC50 in series [1] turned out to be 12.4 nM.

`Cc1ccc(-c2ncc3c(ccn3CC3CCNCC3)c2-c2ccc(C#N)cc2)cn1`: the IC50 in series [1] stood at 69.8 nM.

In the case of `CC(C)(C)c1ccc(-c2ncc3c(ccn3CC3CCNCC3)c2-c2ccc(C#N)cc2)cc1`, the IC50 in series [1] stood at 47.9 nM.

Regarding `Cn1ncc2cc(-c3ncc4c(ccn4C[C@@H]4CCNC4)c3-c3ccc(C#N)c(F)c3)ccc21`, the half-life in series [5], in series [6], in series [7] and in series [8] was greater than 60 min each time. For the same molecule, in series [1], the IC50 came out at 3.7 nM.

As to `Cn1ncc2cc(-c3ncc4[nH]ccc4c3-c3ccc(C#N)cc3)ccc21`, in series [1], the IC50 came out at 3710 nM.

With `Cn1ncc2cc(-c3ncc4c(ccn4CC4(C)CCNCC4)c3-c3ccc(C#N)c(F)c3)ccc21`, the half-life in series [5], in series [6], in series [7] and in series [8] was greater than 60 min in each case. The IC50 in series [1] is 3.1 nM; in series [2], 31 nM; in series [3], 1.1 nM; in series [4], 0.6 nM.

As to `Cn1ncc2cc(-c3ncc4c(ccn4CC4CCNCC4)c3-c3ccc(C#N)c(F)c3)ccc21`, the half-life in series [5], in series [6], in series [7] and in series [8] was greater than 60 min throughout. In addition, the IC50 in series [1] is 3.9 nM; in series [2] it was 316 nM; in series [3] it was 7.3 nM; in series [4], 2.7 nM.

Consider `Cc1cc(C#N)ccc1-c1c(-c2ccc3c(cnn3C)c2)ncc2c1ccn2CC1CCNCC1`, for which the IC50 in series [1] is 215 nM.

Consider `Cc1ccc(-c2ncc3c(ccn3C[C@@H]3CCNC3)c2-c2ccc(C#N)cc2)cc1`, for which the IC50 in series [1] amounted to 80 nM.

In the case of `Cn1ncc2cc(-c3ncc4c(ccn4Cc4c[nH]cn4)c3-c3ccc(C#N)c(F)c3)ccc21`, in series [1], the IC50 was greater than 10000 nM.

Regarding `C/C(=N\NC(=O)c1cccc(S(=O)(=O)N2CCN(C)CC2)c1)c1cc(Cl)ccc1O` [SECLIDEMSTAT], in series [1], the IC50 came to 26.2 nM.

The IC50 is the midpoint of a concentration-inhibition curve. What is called half-life is the time in which the quantity being followed falls by half.
